Assays:
[1] = target: isolated recombinant JAK2 kinase domain (Homo sapiens (Human), UniProt O60674); experiment: JAK2 enzyme assay (Caliper LabChip, peptide phosphorylation); assay type: biochemical; conditions: 25 μM ATP
[2] = system: JAK1-dependent STAT6 phosphorylation downstream of IL-13 stimulation in TF-1 human erythroleukemia cells; experiment: JAK1 pathway assay in TF-1 cells (IL-13-pSTAT6, MSD); assay type: cell-based; conditions: Homo sapiens, TF-1, TF-1 cells, read-out: IL13-pSTAT6 EC50_TF-1
In short: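 BEAS-2B: complete growth medium, compound 1 hr at 37° C. TF-1: GM-CSF-starved overnight, serum-free OptiMEM, compound 30 min.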

[3] = target: isolated recombinant JAK1 kinase domain (Homo sapiens (Human), UniProt P23458); experiment: JAK1 enzyme assay (Caliper LabChip, peptide phosphorylation); assay type: biochemical; conditions: isolated recombinant JAK1 kinase domain, 25 μM ATP
Sequence of isolated recombinant JAK1 kinase domain (P23458 875-1153): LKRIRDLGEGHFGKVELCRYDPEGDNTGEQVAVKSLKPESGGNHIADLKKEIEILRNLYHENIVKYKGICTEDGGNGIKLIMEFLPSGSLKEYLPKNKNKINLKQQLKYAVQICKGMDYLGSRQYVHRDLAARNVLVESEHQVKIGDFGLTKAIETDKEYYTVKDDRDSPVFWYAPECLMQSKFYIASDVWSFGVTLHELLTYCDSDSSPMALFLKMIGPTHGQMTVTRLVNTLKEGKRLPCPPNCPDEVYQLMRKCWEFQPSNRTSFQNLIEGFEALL

Sequence of isolated recombinant JAK2 kinase domain (O60674 849-1124): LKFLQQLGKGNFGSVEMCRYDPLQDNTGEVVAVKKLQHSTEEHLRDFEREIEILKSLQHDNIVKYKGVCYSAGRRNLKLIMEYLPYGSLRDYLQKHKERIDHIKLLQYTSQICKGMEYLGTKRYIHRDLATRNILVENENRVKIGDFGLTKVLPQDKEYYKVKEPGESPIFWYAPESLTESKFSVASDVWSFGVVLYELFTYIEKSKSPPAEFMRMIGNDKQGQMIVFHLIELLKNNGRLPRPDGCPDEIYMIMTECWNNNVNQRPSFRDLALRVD

Compound	Ki [1]	EC50 [2]	Ki [3]
CN(C)C[C@H]1CCCN1C(=O)Cn1cc(NC(=O)c2c(N)nn3cccnc23)c(-c2cc(Cl)ccc2OC(F)F)n1 [Example 78, 2-amino-N-[3-[5-chloro-2-(difluoromethoxy)phenyl]-1-[2-[(2R)-2-[(dimethylamino)methyl]pyrrolidin-1-yl]-2-oxo-ethyl]pyrazol-4-yl]pyrazolo[1,5-a]pyrimidine-3-carboxamide]	1.38 nM	52.4 nM	2.08 nM
CN(C)C[C@@H]1CCCN1C(=O)Cn1cc(NC(=O)c2c(N)nn3cccnc23)c(-c2cc(Cl)ccc2OC(F)F)n1 [Example 79, 2-amino-N-[3-[5-chloro-2-(difluoromethoxy)phenyl]-1-[2-[(2S)-2-[(dimethylamino)methyl]pyrrolidin-1-yl]-2-oxo-ethyl]pyrazol-4-yl]pyrazolo[1,5-a]pyrimidine-3-carboxamide]	2.11 nM	158 nM	4.54 nM
CN(C)CC1(c2ccccc2)CCN(C(=O)Cn2cc(NC(=O)c3cnn4cccnc34)c(-c3cc(Cl)ccc3OC(F)F)n2)CC1 [Example 80, N-[3-[5-chloro-2-(difluoromethoxy)phenyl]-1-[2-[4-[(dimethylamino)methyl]-4-phenyl-1-piperidyl]-2-oxo-ethyl]pyrazol-4-yl]pyrazolo[1,5-a]pyrimidine-3-carboxamide]	0.87 nM	4.9 nM	0.43 nM
CN(C)C[C@@H]1CCCN(C(=O)Cn2cc(NC(=O)c3c(N)nn4cccnc34)c(-c3cc(Cl)ccc3OC(F)F)n2)C1 [Example 82, 2-amino-N-[3-[5-chloro-2-(difluoromethoxy)phenyl]-1-[2-[(3S)-3-[(dimethylamino)methyl]-1-piperidyl]-2-oxo-ethyl]pyrazol-4-yl]pyrazolo[1,5-a]pyrimidine-3-carboxamide]	0.53 nM	8.7 nM	1.17 nM
O=C(Nc1cn(CC(=O)N2CCC(NC3CCC3)CC2)nc1-c1cc(Cl)ccc1OC(F)F)c1cnn2cccnc12 [Example 84, N-[3-[5-chloro-2-(difluoromethoxy)phenyl]-1-[2-[4-(cyclobutylamino)-1-piperidyl]-2-oxo-ethyl]pyrazol-4-yl]pyrazolo[1,5-a]pyrimidine-3-carboxamide]	1.47 nM	24.6 nM	0.91 nM

Continued, values first:

Ki [1]	EC50 [2]	Ki [3]	Compound
1.6 nM	25.2 nM	0.72 nM	CN(CCc1ccccn1)C1CCN(C(=O)Cn2cc(NC(=O)c3cnn4cccnc34)c(-c3cc(Cl)ccc3OC(F)F)n2)CC1 [Example 86, N-[3-[5-chloro-2-(difluoromethoxy)phenyl]-1-[2-[4-[methyl-[2-(2-pyridyl)ethyl]amino]-1-piperidyl]-2-oxo-ethyl]pyrazol-4-yl]pyrazolo[1,5-a]pyrimidine-3-carboxamide]
1.91 nM	299 nM	1.72 nM	CN(C)C(=O)CCCN(C)C1CCN(C(=O)Cn2cc(NC(=O)c3cnn4cccnc34)c(-c3cc(Cl)ccc3OC(F)F)n2)CC1 [Example 88, N-[3-[5-chloro-2-(difluoromethoxy)phenyl]-1-[2-[4-[[4-(dimethylamino)-4-oxo-butyl]-methyl-amino]-1-piperidyl]-2-oxo-ethyl]pyrazol-4-yl]pyrazolo[1,5-a]pyrimidine-3-carboxamide]
1.45 nM	22.7 nM	0.88 nM	O=C(Nc1cn(CC(=O)N2CCC(NCCc3ccccc3)CC2)nc1-c1cc(Cl)ccc1OC(F)F)c1cnn2cccnc12 [Example 89, N-[3-[5-chloro-2-(difluoromethoxy)phenyl]-1-[2-oxo-2-[4-(2-phenylethylamino)-1-piperidyl]ethyl]pyrazol-4-yl]pyrazolo[1,5-a]pyrimidine-3-carboxamide]
1.31 nM	23.3 nM	0.95 nM	CN(CCc1ccc(O)cc1)C1CCN(C(=O)Cn2cc(NC(=O)c3cnn4cccnc34)c(-c3cc(Cl)ccc3OC(F)F)n2)CC1 [Example 90, N-[3-[5-chloro-2-(difluoromethoxy)phenyl]-1-[2-[4-[2-(4-hydroxyphenyl)ethyl-methyl-amino]-1-piperidyl]-2-oxo-ethyl]pyrazol-4-yl]pyrazolo[1,5-a]pyrimidine-3-carboxamide]

— patent publication US9346815B2, “5-chloro-2-difluoromethoxyphenyl pyrazolopyrimidine compounds, compositions and methods of use thereof” (Genentech, Inc., priority 2014, dated 2016)
